Blank lines part the entries; values can stand above or below the compound they belong to. The source made the active and inactive calls. The rule behind the calls is not given here.
Columns and labels:
[1] = target: T1, Probable G-protein coupled receptor 34 (Homo sapiens, UniProt Q9UPC5); experiment: Antagonist activity at GPR34 (unknown origin) by Glosensor cAMP assay; assay type: functional
[2] = target: T1, Probable G-protein coupled receptor 34; experiment: Antagonist activity at GPR34 (unknown origin) by Tango assay; assay type: functional
[3] = Cytotoxicity against HEK293 cells incubated for 72 hrs by MTT assay; assay type: toxicity, cell-based; conditions: human
[4] = Cytotoxicity against human LX2 cells incubated for 72 hrs by MTT assay; assay type: toxicity, cell-based; conditions: LX-2 cells
[5] = Cytotoxicity against human BEAS-2B cells incubated for 72 hrs by MTT assay; assay type: toxicity, cell-based
[6] = Cytotoxicity against human HUVEC cells incubated for 72 hrs by MTT assay; assay type: toxicity, cell-based
[7] = Cytotoxicity against human Muller cells incubated for 72 hrs by MTT assay; assay type: toxicity, cell-based, Muller cell
[8] = Cytotoxicity against African green monkey COS-7 cells incubated for 72 hrs by MTT assay; assay type: toxicity, cell-based, Chlorocebus aethiops
[9] = target: T2, Lysophosphatidic acid receptor 3 (Homo sapiens, UniProt Q9UBY5); experiment: Agonist activity at LPAR3 (unknown origin); assay type: functional
T2 sequence (Q9UBY5 whole entry): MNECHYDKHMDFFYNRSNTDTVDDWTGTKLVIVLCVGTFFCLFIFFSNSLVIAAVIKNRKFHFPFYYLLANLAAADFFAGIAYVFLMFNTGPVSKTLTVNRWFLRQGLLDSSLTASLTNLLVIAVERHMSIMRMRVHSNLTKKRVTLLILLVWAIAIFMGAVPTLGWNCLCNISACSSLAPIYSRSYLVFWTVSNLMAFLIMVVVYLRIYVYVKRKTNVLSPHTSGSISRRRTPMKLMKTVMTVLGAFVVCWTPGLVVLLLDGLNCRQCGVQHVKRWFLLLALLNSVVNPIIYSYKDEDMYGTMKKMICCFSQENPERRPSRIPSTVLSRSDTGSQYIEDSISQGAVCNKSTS

[10] = target: T3, Lysophosphatidic acid receptor 4 (Homo sapiens, UniProt Q99677); experiment: Agonist activity at LPAR4 (unknown origin); assay type: functional
P2Y purinoceptor 12 [11] = target: T4, P2Y purinoceptor 12 (Homo sapiens, UniProt Q9H244); experiment: Agonist activity at P2Y12R (unknown origin); assay type: functional
Cannabinoid receptor 2 [12] = target: T5, Cannabinoid receptor 2 (Homo sapiens, UniProt P34972); experiment: Agonist activity at CB2 (unknown origin); assay type: functional
[13] = target: T6, C-X-C chemokine receptor type 5 (Homo sapiens, UniProt P32302); experiment: Agonist activity at CXCR5 (unknown origin); assay type: functional
T6 sequence (P32302 whole entry): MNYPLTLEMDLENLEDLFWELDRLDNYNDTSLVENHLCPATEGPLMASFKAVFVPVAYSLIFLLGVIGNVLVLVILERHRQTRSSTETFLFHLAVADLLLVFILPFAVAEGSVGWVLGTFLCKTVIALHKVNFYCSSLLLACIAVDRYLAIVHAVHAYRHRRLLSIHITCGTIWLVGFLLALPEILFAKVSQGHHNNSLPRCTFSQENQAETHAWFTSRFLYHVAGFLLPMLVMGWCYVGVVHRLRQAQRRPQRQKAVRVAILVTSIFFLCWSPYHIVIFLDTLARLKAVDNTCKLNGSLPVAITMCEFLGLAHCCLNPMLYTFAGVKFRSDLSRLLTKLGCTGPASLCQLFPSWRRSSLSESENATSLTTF

Adenosine receptor A3 [14] = target: T7, Adenosine receptor A3 (Homo sapiens, UniProt P0DMS8); experiment: Agonist activity at A3AR (unknown origin); assay type: functional
T7 sequence (P0DMS8 whole entry): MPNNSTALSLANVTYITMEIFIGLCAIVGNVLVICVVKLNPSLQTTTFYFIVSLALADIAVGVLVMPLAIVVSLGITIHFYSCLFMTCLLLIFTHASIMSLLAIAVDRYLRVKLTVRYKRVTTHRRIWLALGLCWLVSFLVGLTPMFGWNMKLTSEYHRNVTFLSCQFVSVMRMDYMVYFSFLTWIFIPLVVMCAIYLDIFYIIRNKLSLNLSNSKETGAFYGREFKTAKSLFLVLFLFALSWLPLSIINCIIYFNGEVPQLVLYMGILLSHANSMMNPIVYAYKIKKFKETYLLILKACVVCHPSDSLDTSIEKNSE

[15] = target: T2, Lysophosphatidic acid receptor 3; experiment: Antagonist activity at LPAR3 (unknown origin); assay type: functional
[16] = target: T3, Lysophosphatidic acid receptor 4; experiment: Antagonist activity at LPAR4 (unknown origin); assay type: functional
P2Y purinoceptor 12 [17] = target: T4, P2Y purinoceptor 12; experiment: Antagonist activity at P2Y12R (unknown origin); assay type: functional
Cannabinoid receptor 2 [18] = target: T5, Cannabinoid receptor 2; experiment: Antagonist activity at CB2 (unknown origin); assay type: functional
[19] = target: T6, C-X-C chemokine receptor type 5; experiment: Antagonist activity at CXCR5 (unknown origin); assay type: functional
Adenosine receptor A3 [20] = target: T7, Adenosine receptor A3; experiment: Antagonist activity at A3AR (unknown origin); assay type: functional
[21] = Acute toxicity in C57BL/6 mouse assessed as animal death at 200 mg/kg, ip; assay type: organism-based; conditions: in vivo
[22] = Toxicity in C57BL/6 mouse assessed as body weight change at 100 mg/kg, ip bid for 6 days consecutively; assay type: organism-based; conditions: in vivo, 144 h, time 6 day
[23] = Toxicity in C57BL/6 mouse assessed as indications of organ damage at 100 mg/kg, ip bid for 6 days consecutively; assay type: organism-based; conditions: in vivo, 144 h, time 6 day
Mus musculus = experiment: Antinociceptive activity in mouse model of SNI-induced neuropathic pain assessed as reduction in mechanical allodynia at 10 to 20 mg/kg, ip bid; assay type: functional, organism-based; conditions: dose 10-20 mg/kg

T1 sequence (Q9UPC5 whole entry): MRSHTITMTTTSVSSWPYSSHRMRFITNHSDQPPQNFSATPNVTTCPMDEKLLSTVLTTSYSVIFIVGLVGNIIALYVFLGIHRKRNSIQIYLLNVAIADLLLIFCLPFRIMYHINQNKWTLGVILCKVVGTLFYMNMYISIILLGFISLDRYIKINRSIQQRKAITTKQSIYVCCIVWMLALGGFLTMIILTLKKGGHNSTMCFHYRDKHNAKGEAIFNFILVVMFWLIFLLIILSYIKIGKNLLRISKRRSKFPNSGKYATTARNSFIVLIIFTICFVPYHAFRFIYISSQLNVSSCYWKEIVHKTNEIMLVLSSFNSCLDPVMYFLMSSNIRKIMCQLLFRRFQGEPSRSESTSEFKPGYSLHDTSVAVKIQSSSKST
T3 sequence (Q99677 whole entry): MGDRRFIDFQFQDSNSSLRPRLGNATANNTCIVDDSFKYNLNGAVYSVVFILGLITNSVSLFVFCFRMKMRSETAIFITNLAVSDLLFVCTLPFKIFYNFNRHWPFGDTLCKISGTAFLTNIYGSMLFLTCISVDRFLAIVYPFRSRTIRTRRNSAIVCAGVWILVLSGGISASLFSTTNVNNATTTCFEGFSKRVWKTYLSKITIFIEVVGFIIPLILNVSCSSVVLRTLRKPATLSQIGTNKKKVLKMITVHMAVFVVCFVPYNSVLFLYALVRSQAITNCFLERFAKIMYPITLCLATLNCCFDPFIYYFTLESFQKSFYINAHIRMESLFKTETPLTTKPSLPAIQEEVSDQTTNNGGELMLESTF
T5 sequence (P34972 whole entry): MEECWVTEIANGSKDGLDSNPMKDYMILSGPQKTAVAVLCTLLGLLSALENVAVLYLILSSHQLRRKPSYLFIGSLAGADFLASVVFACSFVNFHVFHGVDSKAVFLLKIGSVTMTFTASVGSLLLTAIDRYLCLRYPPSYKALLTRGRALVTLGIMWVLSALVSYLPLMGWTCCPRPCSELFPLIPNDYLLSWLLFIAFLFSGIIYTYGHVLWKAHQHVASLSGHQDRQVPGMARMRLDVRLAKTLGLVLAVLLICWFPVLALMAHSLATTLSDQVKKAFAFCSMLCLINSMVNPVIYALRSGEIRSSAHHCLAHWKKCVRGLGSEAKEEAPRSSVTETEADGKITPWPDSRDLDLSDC
T4 sequence (Q9H244 whole entry): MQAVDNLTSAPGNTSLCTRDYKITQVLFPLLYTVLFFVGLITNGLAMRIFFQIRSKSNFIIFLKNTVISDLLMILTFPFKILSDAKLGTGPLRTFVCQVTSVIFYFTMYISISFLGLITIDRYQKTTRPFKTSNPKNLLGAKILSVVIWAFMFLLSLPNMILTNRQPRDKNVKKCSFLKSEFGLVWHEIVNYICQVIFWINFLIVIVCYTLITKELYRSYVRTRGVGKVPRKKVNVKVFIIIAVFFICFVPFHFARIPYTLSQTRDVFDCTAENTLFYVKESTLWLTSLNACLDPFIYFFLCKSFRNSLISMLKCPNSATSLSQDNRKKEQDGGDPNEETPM

SMILES: COc1cccc(-c2ccc(OCC(=O)N[C@@H](Cc3ccc(OCc4ccccc4)cc3)C(=O)O)cc2)c1
IC50 [1]: > 30 µM

SMILES: Cc1ccc(OCC(=O)N[C@@H](Cc2ccc(OCc3ccccc3)cc2)C(=O)O)cc1
IC50 [1]: > 30 µM

SMILES: O=C(COc1ccccc1F)N[C@@H](Cc1ccc(OCc2ccccc2)cc1)C(=O)O
IC50 [1]: > 30 µM

SMILES: O=C(COc1ccc(-c2cccc(Cl)c2)cc1)N[C@@H](Cc1ccc(OCc2ccccc2)cc1)C(=O)O
IC50 [1]: 0.68 µM
IC50 [2]: 0.059 µM
IC50 at 72 h [3]: > 30 µM
IC50 at 72 h [4]: > 30 µM
IC50 at 72 h [5]: > 30 µM
IC50 at 72 h [6]: > 30 µM
IC50 at 72 h [7]: > 30 µM
IC50 at 72 h [8]: > 30 µM
EC50 [9]: > 10 µM
EC50 [10]: > 10 µM
EC50 (P2Y purinoceptor 12 [11]): > 10 µM
EC50 (Cannabinoid receptor 2 [12]): > 10 µM
EC50 [13]: > 10 µM
EC50 (Adenosine receptor A3 [14]): > 10 µM
EC50 [15]: > 10 µM
EC50 [16]: > 10 µM
EC50 (P2Y purinoceptor 12 [17]): > 10 µM
EC50 (Cannabinoid receptor 2 [18]): > 10 µM
EC50 [19]: > 10 µM
EC50 (Adenosine receptor A3 [20]): > 10 µM
Activity [21]: Non-Toxic
Activity [22]: Non-Toxic
Activity [23]: Non-Toxic
Activity (Mus musculus): Active

SMILES: O=C(COc1ccc(Cl)cc1)N[C@@H](Cc1ccc(OCc2ccccc2)cc1)C(=O)O
IC50 [1]: > 30 µM

SMILES: O=C(COc1ccc(-c2cccc(Cl)c2)cc1)N[C@@H](Cc1ccccc1)C(=O)O
IC50 [1]: > 30 µM

SMILES: Cn1nccc1-c1ccc(OCC(=O)N[C@@H](Cc2ccc(OCc3ccccc3)cc2)C(=O)O)cc1
IC50 [1]: > 30 µM

SMILES: CC(C)c1ccc(OCC(=O)N[C@@H](Cc2ccc(OCc3ccccc3)cc2)C(=O)O)cc1
IC50 [1]: > 30 µM

SMILES: C[C@H](NC(=O)COc1ccc(-c2cccc(Cl)c2)cc1)C(=O)O
IC50 [1]: > 30 µM

SMILES: COC(=O)[C@H](Cc1ccc(OCc2ccccc2)cc1)NC(=O)COc1ccc(-c2cccc(Cl)c2)cc1
IC50 [1]: > 30 µM

SMILES: O=C(COc1cccnc1)N[C@@H](Cc1ccc(OCc2ccccc2)cc1)C(=O)O
IC50 [1]: > 30 µM

SMILES: NC(=O)[C@H](Cc1ccc(OCc2ccccc2)cc1)NC(=O)COc1ccc(-c2cccc(Cl)c2)cc1
IC50 [1]: > 30 µM

The next lines start with the values.

IC50 [1]: 0.968 µM
SMILES: O=C(COc1ccc(-c2ccc(F)cc2)cc1)N[C@@H](Cc1ccc(OCc2ccccc2)cc1)C(=O)O

IC50 [1]: > 30 µM
SMILES: O=C(COc1ccc(-c2cccc(Cl)c2)cc1)N[C@@H](CC1CCCCC1)C(=O)O

IC50 [1]: > 30 µM
SMILES: O=C(COc1ccccc1)N[C@@H](Cc1ccc(OCc2ccccc2)cc1)C(=O)O

IC50 [1]: > 30 µM
SMILES: COc1cccc(OCC(=O)N[C@@H](Cc2ccc(OCc3ccccc3)cc2)C(=O)O)c1

IC50 [1]: 11.6 µM
SMILES: O=C(COc1ccc(F)cc1)N[C@@H](Cc1ccc(OCc2ccccc2)cc1)C(=O)O

IC50 [1]: 1.31 µM
SMILES: O=C(COc1ccc(-c2cccc(C(F)(F)F)c2)cc1)N[C@@H](Cc1ccc(OCc2ccccc2)cc1)C(=O)O

IC50 [1]: > 30 µM
SMILES: O=C(COc1ccc(-c2cccc(Cl)c2)cc1)N[C@@H](Cc1ccc(O)cc1)C(=O)O

IC50 [1]: > 30 µM
SMILES: O=C(COc1ccc(-c2ccccc2F)cc1)N[C@@H](Cc1ccc(OCc2ccccc2)cc1)C(=O)O

IC50 [1]: 1.28 µM
SMILES: O=C(COc1ccc(-c2cccc(F)c2)cc1)N[C@@H](Cc1ccc(OCc2ccccc2)cc1)C(=O)O

IC50 [1]: 13.9 µM
SMILES: O=C(COc1cccc(F)c1)N[C@@H](Cc1ccc(OCc2ccccc2)cc1)C(=O)O

IC50 [1]: 17.4 µM
SMILES: N#Cc1cccc(OCC(=O)N[C@@H](Cc2ccc(OCc3ccccc3)cc2)C(=O)O)c1

IC50 [1]: 1.57 µM
SMILES: O=C(COc1ccc(-c2ccc(Cl)cc2)cc1)N[C@@H](Cc1ccc(OCc2ccccc2)cc1)C(=O)O

IC50 [1]: 2.98 µM
SMILES: O=C(COc1ccc(-c2cccc(Cl)c2)cc1)N[C@H](Cc1ccc(OCc2ccccc2)cc1)C(=O)O
